Assay results as given in US8247211B2, “Glycopeptide antibiotics” (American Cyanamid Company, priority 2001, dated 2012).
≈ marks a conversion by molar mass, not a printed value.

Key:
Assay in all cases: In vitro antibacterial evaluation: minimum inhibitory concentration (MIC), broth dilution method
Type in all cases: cell-based
Enterococcus sp. = tested on: Enterococcus sp.
How it was run: (§1)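 Broth dilution per NCCLS M7-A2 in Muller-Hinton II […], inoculum 5×10^5 CFU/mL, antibiotic tested over 64-0.06 μg/mL. MIC is taken as the lowest concentration that inhibits growth. Panel includes recent clinical isolates resistant to methicillin, penicillin and/or vancomycin.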

Escherichia coli = tested on: Escherichia coli
How it was run: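 An MIC is reported for each organism as the least concentration giving inhibition, using broth dilution over 64-0.06 μg/mL with a 5×10^5 CFU/mL inoculum.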

Staphylococcus sp. = details: broth dilution, 18 hours at 35° C.
How it was run: as §1

Streptococcus sp. = tested on: Streptococcus sp.
How it was run: as §1

COc1cc(C2OCC3OC(OC4C(CO)OC(Oc5ccc(CC6NC(=O)C(C(C)c7ccccc7)NC(=O)CNC(=O)C(CO)NC(=O)C(C(O)C7CNC(=N)N7C7OC(CO)C(O)C(O)C7O)NC(=O)C(C(O)C7CNC(=N)N7)NC6=O)cc5)C(O)C4O)C(O)C(O)C3O2)ccc1[N+](=O)[O-] (stereo not drawn) [Example 153, Cyclo[glycyl-β-methylphenylalanyl-O-[4-O-[4,6-O-(3-methoxy-4-nitrobenzylidene)hexopyranosyl]hexopyranosyl]tyrosyl-3-(2-iminoimidazolidin-4-yl)seryl-3-(3-hexopyranosyl-2-iminoimidazolidin-4-yl)serylseryl]]
MIC Enterococcus faecalis (ATCC 29212) (Enterococcus sp.; strain ATCC 29212): 8 µg/mL (≈ 5.49 µM) | MIC Enterococcus faecalis (GC 2242) (Enterococcus sp.; strain GC 2242): 4 µg/mL (≈ 2.74 µM) | MIC Enterococcus faecium (GC 2243) (Enterococcus sp.; strain GC 2243): 4 µg/mL (≈ 2.74 µM) | MIC Enterococcus faecalis (GC 2691) (Enterococcus sp.; strain GC 2691): 8 µg/mL (≈ 5.49 µM) | MIC Enterococcus faecalis (GC 3059) (Enterococcus sp.; strain GC 3059): 8 µg/mL (≈ 5.49 µM) | MIC Enterococcus faecalis (GC 4552) (Enterococcus sp.; strain GC 4552): 8 µg/mL (≈ 5.49 µM) | MIC Enterococcus faecalis (GC 4553) (Enterococcus sp.; strain GC 4553): 8 µg/mL (≈ 5.49 µM) | MIC Enterococcus faecalis (GC 4554) (Enterococcus sp.; strain GC 4554): 8 µg/mL (≈ 5.49 µM) | MIC Enterococcus faecium (GC 4556) (Enterococcus sp.; strain GC 4556): 4 µg/mL (≈ 2.74 µM) | MIC Enterococcus faecium (GC 4557) (Enterococcus sp.; strain GC 4557): 2 µg/mL (≈ 1.37 µM) | MIC Enterococcus avium (GC 4558) (Enterococcus sp.; strain GC 4558): 8 µg/mL (≈ 5.49 µM) | MIC Enterococcus faecalis (GC 6189) (Enterococcus sp.; strain GC 6189): 4 µg/mL (≈ 2.74 µM) | MIC Escherichia coli (ATCC 25922) (Escherichia coli; strain ATCC 25922): 64 µg/mL (≈ 43.9 µM) | MIC Escherichia coli (GC 4559) (Escherichia coli; strain GC 4559): 64 µg/mL (≈ 43.9 µM) | MIC Coagulase Negative Staphylococcus (GC 4547) (Staphylococcus sp.; 5×10^5 CFU/mL): 1 µg/mL (≈ 0.686 µM) | MIC Coagulase Negative Staphylococcus (GC 4548) (Staphylococcus sp.; 5×10^5 CFU/mL): 0.5 µg/mL (≈ 0.343 µM) | MIC Coagulase Negative Staphylococcus (GC 4549) (Staphylococcus sp.; 5×10^5 CFU/mL): 0.5 µg/mL (≈ 0.343 µM) | MIC Coagulase Negative Staphylococcus (GC 4551) (Staphylococcus sp.; 5×10^5 CFU/mL): 2 µg/mL (≈ 1.37 µM) | MIC Coagulase Negative Staphylococcus (GC 6257) (Staphylococcus sp.; 5×10^5 CFU/mL): 0.5 µg/mL (≈ 0.343 µM) | MIC Staphylococcus aureus (ATCC 29213) (Staphylococcus sp.; 5×10^5 CFU/mL): 2 µg/mL (≈ 1.37 µM) | MIC Staphylococcus aureus (GC 1131) (Staphylococcus sp.; 5×10^5 CFU/mL): 2 µg/mL (≈ 1.37 µM) | MIC Staphylococcus aureus (GC 3051) (Staphylococcus sp.; 5×10^5 CFU/mL): 2 µg/mL (≈ 1.37 µM) | MIC Staphylococcus aureus (GC 3053) (Staphylococcus sp.; 5×10^5 CFU/mL): 4 µg/mL (≈ 2.74 µM) | MIC Staphylococcus aureus (GC 4541) (Staphylococcus sp.; 5×10^5 CFU/mL): 2 µg/mL (≈ 1.37 µM) | MIC Staphylococcus aureus (GC 4542) (Staphylococcus sp.; 5×10^5 CFU/mL): 2 µg/mL (≈ 1.37 µM) | MIC Staphylococcus aureus (GC 4544) (Staphylococcus sp.; 5×10^5 CFU/mL): 2 µg/mL (≈ 1.37 µM) | MIC Staphylococcus aureus (GC 4545) (Staphylococcus sp.; 5×10^5 CFU/mL): 2 µg/mL (≈ 1.37 µM) | MIC Staphylococcus aureus-SMITH (GC 4543) (Staphylococcus sp.; 5×10^5 CFU/mL): 1 µg/mL (≈ 0.686 µM) | MIC Staphylococcus haemolyticus (GC 4546) (Staphylococcus sp.; 5×10^5 CFU/mL): 1 µg/mL (≈ 0.686 µM) | MIC Staphylococcus aureus (ATCC 29213) (Staphylococcus sp.; strain ATCC 29213): 2 µg/mL (≈ 1.37 µM) | MIC Staphylococcus aureus (GC 1131) (Staphylococcus sp.; strain GC 1131): 2 µg/mL (≈ 1.37 µM) | MIC Staphylococcus aureus (GC 3051) (Staphylococcus sp.; strain GC 3051): 2 µg/mL (≈ 1.37 µM) | MIC Staphylococcus aureus (GC 3053) (Staphylococcus sp.; strain GC 3053): 4 µg/mL (≈ 2.74 µM) | MIC Staphylococcus aureus (GC 4541) (Staphylococcus sp.; strain GC 4541): 2 µg/mL (≈ 1.37 µM) | MIC Staphylococcus aureus (GC 4542) (Staphylococcus sp.; strain GC 4542): 2 µg/mL (≈ 1.37 µM) | MIC Staphylococcus aureus-SMITH (GC 4543) (Staphylococcus sp.; strain GC 4543): 1 µg/mL (≈ 0.686 µM) | MIC Staphylococcus aureus (GC 4544) (Staphylococcus sp.; strain GC 4544): 2 µg/mL (≈ 1.37 µM) | MIC Staphylococcus aureus (GC 4545) (Staphylococcus sp.; strain GC 4545): 2 µg/mL (≈ 1.37 µM) | MIC Staphylococcus haemolyticus (GC 4546) (Staphylococcus sp.; strain GC 4546): 1 µg/mL (≈ 0.686 µM) | MIC Coagulase Negative Staphylococcus (GC 4547) (Staphylococcus sp.; strain GC 4547): 1 µg/mL (≈ 0.686 µM) | MIC Coagulase Negative Staphylococcus (GC 4548) (Staphylococcus sp.; strain GC 4548): 0.5 µg/mL (≈ 0.343 µM) | MIC Coagulase Negative Staphylococcus (GC 4549) (Staphylococcus sp.; strain GC 4549): 0.5 µg/mL (≈ 0.343 µM) | MIC Coagulase Negative Staphylococcus (GC 4551) (Staphylococcus sp.; strain GC 4551): 2 µg/mL (≈ 1.37 µM) | MIC Coagulase Negative Staphylococcus (GC 6257) (Staphylococcus sp.; strain GC 6257): 0.5 µg/mL (≈ 0.343 µM) | MIC Streptococcus pneumoniae (ATCC 6301) (Streptococcus sp.; strain ATCC 6301): <0.06 µg/mL | MIC Streptococcus pneumoniae (GC 1894) (Streptococcus sp.; strain GC 1894): <0.06 µg/mL | MIC Streptococcus pyogenes (GC 4563) (Streptococcus sp.; strain GC 4563): 0.25 µg/mL (≈ 0.171 µM) | MIC Streptococcus agalactiae (GC 4564) (Streptococcus sp.; strain GC 4564): 0.5 µg/mL (≈ 0.343 µM) | MIC Streptococcus pneumoniae (GC 4565) (Streptococcus sp.; strain GC 4565): <0.06 µg/mL
